# Experimental data reported in PubChem BioAssay AID1963828 (Molecular Pharmacology Branch, DTP, NCI, 2024).
# pIC50: −log10 of the molar value. Several values for one entry are separate records, joined by “and”; a condition that tells them apart may be missing. Equal entries are not always repeated.
# System: 991263-137-R1-J2-PDC complex spheroid viability
# Assay: Anticancer human tumor 991263-137-R1-J2-PDC patient-derived colon adenocarcinoma cell line growth inhibition [POLQ]
# Settings: for viability, T/C: stronger effect = lower value
# Method: Multicellular complex tumor spheroid response to Polymerase (POL) inhibitors (novobiocin, ART-558, RP6685) in combination with a variety of drugs and investigational agents in selected tumor cell lines
# The POL inhibitors (novobiocin, ART-558, and RP6685) were evaluated both individually and in combination with standard of care and investigational anticancer small molecules within a complex spheroid model of solid tumors. . Complex spheroids include a stromal component modeled by human endothelial cells (HUVEC) and fibroblasts modeled by human mesenchymal stem cells (MSCs). The concentration ranges selected for each drug and investigational agent were based upon clinically achievable concentrations if the clinical Cmax of the agent was known.
# Compounds. The drugs and investigational agents: novobiocin (NSC847541), ART-558 (NSC835418), RP-6685 (NSC848927), peposertib (NSC802822), ceralasertib (NSC780249), elimusertib (NSC800525), camonsertib (NSC841442), AZD-1390 (NSC803789), olaparib (NSC753686), talazoparib (NSC767125), rucaparib (NSC756644), sotorasib (NSC818433), MRTX-1133 (NSC836407), SN-38 (NSC673596), topotecan (NSC609699), epotoside (NSC141540), doxorubicin (NSC123127), gemcitabine (NSC613327), 5-fluorouracil (NSC19893), paclitaxel (NSC125973), vemurafenib (NSC761431), MSA-2 (NSC828583), SN-011 (NSC837082), adavosertib (NSC754352), prexasertib (NSC758257), carboplatin (NSC241240) and oxaliplatin (NSC266046), were obtained from the National Cancer Institute (NCI) Developmental Therapeutics Program Chemical Repository (21). The FDA-approved anticancer drug set is available from the Developmental Therapeutics Program at https://dtp.cancer.gov/organization/dscb/obtaining/. […] The stock solutions were prepared in dimethyl sulfoxide (DMSO, Sigma-Aldrich, St. Louis, MO, cat. D2650), except for the platinum compounds which were prepared in saline (Quality Biological, Gaithersburg, MD, cat. 114-055-101), at 800-fold the tested concentration and stored at -70 degrees C prior to their use. All drugs and investigational agents were tested over a range starting from a high concentration at or near the clinical Cmax and decreasing in half-log increments. If the clinical Cmax for an agent had not been determined, the highest concentration tested was 10 microM, except for SN-38, which was tested at a high concentration of 1 microM.
# Cell Culture. All cells were maintained in an incubator at 37 degrees C and 5% CO2 with 95% humidity. The PDC lines were cultured according to standard operating procedures established by the NCI PDMR (https://pdmr.cancer.gov). Table 3 of the manuscript, lists the cell lines along with the number of the three cell types plated to form the mct-spheroids and media for tumor cell growth. After thawing, all PDC lines, except 997537-175-T-J1-PDC and 415267-285-R-J2-PDC, were cultured in Matrigel-coated flasks prepared with a working solution of 1X Ham's F-12 nutrient mix, without supplementation (Thermo Fisher Scientific, cat. 11765054), 100 U/mL penicillin-streptomycin (Thermo Fisher Scientific, cat. 15140122), and 2.5% Matrigel (Corning Inc., Corning, NY, cat. 354248) for the first three passages. The two PDC lines 997537-175-T-J1-PDC and 415267-285-R-J2-PDC were cultured on uncoated flasks. The 857933-349-R-J2-PDC line was cultured in 6C/Colon 1B media containing advanced DMEM/F-12 (Thermo Fisher Scientific, cat. 12634028), 10 mM HEPES (Thermo Fisher Scientific, cat. 15630080), 1X GlutaMAX supplement (Thermo Fisher Scientific, cat. 35050061), 0.1 mg/mL primocin (InvivoGen, San Diego, CA, cat. ant-pm-2), 10% defined fetal bovine serum, heat inactivated (HyClone Laboratories Inc., Logan, UT, cat. SH30070.03HI), 50% L-WRN conditioned media (ATCC, cat. CRL-3276), 1.25 mM N-Acetyl-L-cysteine (Sigma-Aldrich, cat. A9165), 10 mM nicotinamide (Sigma-Aldrich, cat. N0636), 1X B-27 supplement (Thermo Fisher Scientific, cat. 17504044), 1X N-2 supplement (Thermo Fisher Scientific, cat. […]
# 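Further: spheroids exposed to compounds for 7 days before readout.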
# 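Wherever viability, T/C is given: 100% = DMSO vehicle control viability.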
smiles,measurement,setting,value
COc1cc2cc(C(=O)CCC(=O)O)sc2cc1OC,"viability, T/C",compound 0.0316 µM,104% and 107% and 91.3%
same,"viability, T/C",compound 0.1 µM,85% and 96.5% and 104%
same,"viability, T/C",compound 0.316 µM,117% and 104% and 114%
same,"viability, T/C",compound 10 µM,74.1% and 83.3% and 78.4%
same,pIC50,curve of compound,< 5.00
C=CC(=O)N1CCN(c2nc(=O)n(-c3c(C)ccnc3C(C)C)c3nc(-c4c(O)cccc4F)c(F)cc23)C(C)C1 (configuration not stated) + Nc1ccc(C#CCN(C(=O)Cc2ncc(C(F)(F)F)cc2C(F)(F)F)c2ccc(F)cc2)nn1,pIC50,"curve of first compound, second compound 0.0316 µM",< 5.00
same,pIC50,"curve of first compound, second compound 0.1 µM",< 5.00
same,pIC50,"curve of first compound, second compound 0.316 µM",< 5.00
same,pIC50,"curve of first compound, second compound 1 µM",< 5.00
same,pIC50,"curve of first compound, second compound 3.16 µM",< 5.00
same,pIC50,"curve of first compound, second compound 10 µM",< 5.00
same,"viability, T/C","second compound 0.0316 µM, first compound 0.0316 µM",108%
same,"viability, T/C","second compound 0.0316 µM, first compound 0.1 µM",100%
same,"viability, T/C","second compound 0.0316 µM, first compound 0.316 µM",99.3%
same,"viability, T/C","second compound 0.0316 µM, first compound 1 µM",96.5%
same,"viability, T/C","second compound 0.0316 µM, first compound 3.16 µM",109%
same,"viability, T/C","second compound 0.0316 µM, first compound 10 µM",116%
same,"viability, T/C","second compound 0.1 µM, first compound 0.0316 µM",102%
same,"viability, T/C","second compound 0.1 µM, first compound 0.1 µM",104%
same,"viability, T/C","second compound 0.1 µM, first compound 0.316 µM",114%
same,"viability, T/C","second compound 0.1 µM, first compound 1 µM",98%
same,"viability, T/C","second compound 0.1 µM, first compound 3.16 µM",117%
same,"viability, T/C","second compound 0.1 µM, first compound 10 µM",105%
same,"viability, T/C","second compound 0.316 µM, first compound 0.0316 µM",104%
same,"viability, T/C","second compound 0.316 µM, first compound 0.1 µM",105%
same,"viability, T/C","second compound 0.316 µM, first compound 0.316 µM",102%
same,"viability, T/C","second compound 0.316 µM, first compound 1 µM",96.7%
same,"viability, T/C","second compound 0.316 µM, first compound 3.16 µM",113%
same,"viability, T/C","second compound 0.316 µM, first compound 10 µM",106%
same,"viability, T/C","second compound 1 µM, first compound 0.0316 µM",110%
same,"viability, T/C","second compound 1 µM, first compound 0.1 µM",105%
same,"viability, T/C","second compound 1 µM, first compound 0.316 µM",107%
same,"viability, T/C","second compound 1 µM, first compound 1 µM",97.7%
same,"viability, T/C","second compound 1 µM, first compound 3.16 µM",107%
same,"viability, T/C","second compound 1 µM, first compound 10 µM",100%
same,"viability, T/C","second compound 3.16 µM, first compound 0.0316 µM",94.5%
same,"viability, T/C","second compound 3.16 µM, first compound 0.1 µM",85.6%
same,"viability, T/C","second compound 3.16 µM, first compound 0.316 µM",102%
same,"viability, T/C","second compound 3.16 µM, first compound 1 µM",102%
same,"viability, T/C","second compound 3.16 µM, first compound 3.16 µM",106%
same,"viability, T/C","second compound 3.16 µM, first compound 10 µM",110%
same,"viability, T/C","second compound 10 µM, first compound 0.0316 µM",96.6%
same,"viability, T/C","second compound 10 µM, first compound 0.1 µM",107%
same,"viability, T/C","second compound 10 µM, first compound 0.316 µM",90.6%
same,"viability, T/C","second compound 10 µM, first compound 1 µM",117%
same,"viability, T/C","second compound 10 µM, first compound 3.16 µM",99.8%
same,"viability, T/C","second compound 10 µM, first compound 10 µM",100%
